Common to all, as to assay type: cell-based
Test [1] has as its system Staphylococcus epidermidis. Kind of test: Reduction of azo substrates over 24 hours at 35° C., microtitration plate (Example 1). The arrangement: key to RED (substrate reduced or not): RED indicates whether the substrate is reduced (Y) or not (N); RED indicates whether the substrate is reduced (Y) or not (N); key to Co (growth, absorbance at 660 nm) / Decol (substrate decolourized, decrease in absorbance) / Fluo (fluorescence multiplied by 2 relative to substrate-free control): The symbol “+” means good growth/decolourization/significant increase in fluorescence; The symbol “+/−” means difficult growth; The symbol “−” means that there is no growth/decolourization/significant increase in fluorescence. As to conditions: S. epidermidis, substrate 35 mg/l. The essentials:
(§1)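 Each species is represented by a single strain inoculated at 0.5 McFarland into Trypcase soya broth with substrate at 35 mg/l. Plates are read continuously at 35° C. over 24 hours. A substrate counts as reduced when absorbance falls or fluorescence doubles relative to a substrate-free control.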

Another test relates to Geotrichum candidum. The test is described as above. Also on record: key to RED (substrate reduced or not): RED indicates whether the substrate is reduced (Y) or not (N); RED indicates whether the substrate is reduced (Y) or not (N); key to Co (growth, absorbance at 660 nm) / Decol (substrate decolourized, decrease in absorbance) / Fluo (fluorescence multiplied by 2 relative to substrate-free control): The symbol “+” means good growth/decolourization/significant increase in fluorescence; The symbol “+/−” means difficult growth; The symbol “−” means that there is no growth/decolourization/significant increase in fluorescence. As to conditions: G. candidum, substrate 35 mg/l. The essentials: as §1

For another test, the system named is Kocuria rosea. The description is as above. Also on record: key to RED (substrate reduced or not): RED indicates whether the substrate is reduced (Y) or not (N); RED indicates whether the substrate is reduced (Y) or not (N); key to Co (growth, absorbance at 660 nm) / Decol (substrate decolourized, decrease in absorbance) / Fluo (fluorescence multiplied by 2 relative to substrate-free control): The symbol “+” means good growth/decolourization/significant increase in fluorescence; The symbol “+/−” means difficult growth; The symbol “−” means that there is no growth/decolourization/significant increase in fluorescence. As to conditions: K. rosea, substrate 35 mg/l. The essentials:
as §1

Test [2] relates to 10 strains representing 10 species of microorganisms. Kind of test: Reduction of azo substrates, whole panel of Example 1. As to conditions: substrate 35 mg/l, 35° C., 24 hours. As for the experimental part: Reduction of the “azo” function of the substrates listed in Table I by the species listed in Table II, each species being represented by a strain, is tested in a microtitration plate.
The reaction medium consists of: • Trypcase soya broth • Substrate 35 mg/l • 0.5 MacFarland inoculum
The reduction of the substrate and the growth of the microorganisms are monitored using an Infinite® M200 Tecan microplate reader at 35° C. over 24 hours.
The growth is monitored by the absorbance at 660 nm and the reduction of the substrates by absorbance and fluorescence at the specific wavelengths indicated in Table III.
The substrate is considered as reduced by the microorganisms when the substrate is decolourized (monitored by the decrease in absorbance) (Decol) and/or when the fluorescence of the substrate is multiplied by 2 relative to the base fluorescence of a substrate-free control (Fluo). The growth is indicated by Co. The symbol “+” means good growth/decolourization/significant increase in fluorescence. The symbol “+/−” means difficult growth. The symbol “−” means that there is no growth/decolourization/significant increase in fluorescence. RED indicates whether the substrate is reduced (Y) or not (N).

A further test has as its system Saccharomyces cerevisiae. Kind of test: Reduction of 3 azo substrates over 24 hours at 35° C. (Example 2). Also on record: key: The strains that reduce the substrate are marked with a “+”; the strains that do not reduce the substrate are marked with a “−”. The settings on record: substrate 35 mg/l. As for the experimental part:
(§2) The reduction of the “azo” function of the substrates listed in Table V by the 25 species listed in Table VI, each being represented by one or two strains, is tested in a microtitration plate. The reaction medium consists of: • Trypcase soya broth • Substrate 35 mg/l • 0.5 MacFarland inoculum The reduction of the substrate and the growth of the microorganisms are monitored using an Infinite® M200 Tecan microplate reader at 35° C. over 24 hours. The growth is monitored by the absorbance at 660 nm, and the reduction of the substrates by absorbance and fluorescence at the wavelengths indicated in Table III above. The substrate is considered as reduced by the microorganisms when the fluorescence is multiplied by 2 relative to the base fluorescence of the reaction medium.

Another test relates to Citrobacter koseri. Described as above. The arrangement: key: The strains that reduce the substrate are marked with a “+”; the strains that do not reduce the substrate are marked with a “−”. As to conditions: substrate 35 mg/l. As for the experimental part:
as §2

In test [3] the test system is Staphylococcus haemolyticus. Described as above. The arrangement: key: The strains that reduce the substrate are marked with a “+”; the strains that do not reduce the substrate are marked with a “−”. The settings on record: substrate 35 mg/l. As for the experimental part: as §2
In a further test the test system is Staphylococcus hominis. The test is described as above. The arrangement: key: The strains that reduce the substrate are marked with a “+”; the strains that do not reduce the substrate are marked with a “−”. The settings on record: substrate 35 mg/l. The method, then:
as §2

The subject of a further test is Streptococcus pyogenes. Described as above. The arrangement: key: The strains that reduce the substrate are marked with a “+”; the strains that do not reduce the substrate are marked with a “−”. As to conditions: substrate 35 mg/l. As for the experimental part:
as §2

Test [4] has as its system 45 strains representing 25 species of microorganisms. Kind of test: Reduction of 3 azo substrates, whole panel of Example 2. As to conditions: substrate 35 mg/l, 35° C., 24 hours. As for the experimental part: as §2

In the case of `O=C(O)c1cc(/N=N/c2ccc(-c3nc4ccccc4s3)cc2)ccc1O` [BF45, 2-Phenyl-benzothiazole-4′-azo-4″- hydroxybenzene-3″-carboxylic acid], in test [1], the “Co (growth, absorbance at 660 nm)” value is reported as “+”; the “Decol (substrate decolourized, decrease in absorbance)” value is reported as “−”; the “Fluo (fluorescence multiplied by 2 relative to substrate-free control)” value was “+”; the “RED (substrate reduced or not)” value is on record as “Y”. Also, in the test on Geotrichum candidum, the “Co (growth, absorbance at 660 nm)” value is on record as “+”; the “Decol (substrate decolourized, decrease in absorbance)” value is “−”; the “Fluo (fluorescence multiplied by 2 relative to substrate-free control)” value is reported as “−”; the “RED (substrate reduced or not)” value was “N”. For the same compound, in the test with Kocuria rosea, the “Co (growth, absorbance at 660 nm)” value is recorded as “+”; the “Decol (substrate decolourized, decrease in absorbance)” value is given as “−”; the “Fluo (fluorescence multiplied by 2 relative to substrate-free control)” value is given as “+”; the “RED (substrate reduced or not)” value was “Y”.
With `CN(C)c1ccc(/N=N/c2ccccc2C(=O)O)cc1` [Methyl red], in test [1], the “Co (growth, absorbance at 660 nm)” value was “+”; the “Decol (substrate decolourized, decrease in absorbance)” value was “+”; the “Fluo (fluorescence multiplied by 2 relative to substrate-free control)” value is “+”; the “RED (substrate reduced or not)” value is given as “Y”. Moreover, in the test on Geotrichum candidum, the “Co (growth, absorbance at 660 nm)” value was “+/−”; the “Decol (substrate decolourized, decrease in absorbance)” value is “+/−”; the “Fluo (fluorescence multiplied by 2 relative to substrate-free control)” value is “+”; the “RED (substrate reduced or not)” value was “Y”. For the same compound, in the test with Kocuria rosea, the “Co (growth, absorbance at 660 nm)” value is on record as “+/−”; the “Decol (substrate decolourized, decrease in absorbance)” value is “+/−”; the “Fluo (fluorescence multiplied by 2 relative to substrate-free control)” value is “+”; the “RED (substrate reduced or not)” value is on record as “Y”. Further, the “reduction by the microorganisms tested (Table IV)” value in test [2] is on record as “can be reduced by all the microorganisms tested”.
With `CN(C)c1ccc(N=Nc2ccc(S(=O)(=O)[O-])cc2)cc1.[Na+]` [Methyl orange], in test [1], the “Co (growth, absorbance at 660 nm)” value is listed as “+”; the “Decol (substrate decolourized, decrease in absorbance)” value is given as “−”; the “Fluo (fluorescence multiplied by 2 relative to substrate-free control)” value is “−”; the “RED (substrate reduced or not)” value was “N”. In the test with Geotrichum candidum, the “Co (growth, absorbance at 660 nm)” value is listed as “+”; the “Decol (substrate decolourized, decrease in absorbance)” value is recorded as “−”; the “Fluo (fluorescence multiplied by 2 relative to substrate-free control)” value is “−”; the “RED (substrate reduced or not)” value is reported as “N”. Also, in the test on Kocuria rosea, the “Co (growth, absorbance at 660 nm)” value was “−”; the “Decol (substrate decolourized, decrease in absorbance)” value is reported as “−”; the “Fluo (fluorescence multiplied by 2 relative to substrate-free control)” value is recorded as “−”. In addition, the “reduction by the microorganisms tested (Table IV)” value in test [2] was “reduced only by E. faecalis”.
As for `O=C([O-])C1=NN(c2ccc(S(=O)(=O)[O-])cc2)C(=O)C1/N=N/c1ccc(S(=O)(=O)[O-])cc1.[Na+].[Na+].[Na+]` (centres unmarked) [Tartrazine], the “Co (growth, absorbance at 660 nm)” value in test [1] is on record as “+”; with Geotrichum candidum it was “+/−”; in the test on Kocuria rosea, “−”. Besides, the “Decol (substrate decolourized, decrease in absorbance)” value (in test [1]; in the test on Geotrichum candidum; with Kocuria rosea) was “−” each time. Besides, the “Fluo (fluorescence multiplied by 2 relative to substrate-free control)” value (in test [1]; with Geotrichum candidum; in the test on Kocuria rosea) was “−” throughout. For the same compound, the “RED (substrate reduced or not)” value (in test [1]; in the test on Geotrichum candidum) was “N” in each case. The “reduction of the substrate by the strain (fluorescence multiplied by 2)” value (in the test on Saccharomyces cerevisiae; in the test with Citrobacter koseri; in test [3]; in the test with Staphylococcus hominis; in the test on Streptococcus pyogenes) was “−” throughout. Further, in test [4], the “reduction by the species tested (Table VII)” value was “reduced mainly by E. faecalis”.
Consider `O=S(=O)([O-])c1ccc(N=Nc2c(O)ccc3ccccc23)cc1.[Na+]` [Orange II], for which the “Co (growth, absorbance at 660 nm)” value in [1] is “+”; with Geotrichum candidum it was “+/−”; in the test on Kocuria rosea, “−”. In addition, the “Decol (substrate decolourized, decrease in absorbance)” value (in [1]; in the test on Geotrichum candidum; in the test on Kocuria rosea) was “−” throughout. Also, the “Fluo (fluorescence multiplied by 2 relative to substrate-free control)” value (in test [1]; in the test on Geotrichum candidum; with Kocuria rosea) was “−” in each case. Further, the “RED (substrate reduced or not)” value (in test [1]; with Geotrichum candidum) was “N” each time. The “reduction of the substrate by the strain (fluorescence multiplied by 2)” value (with Saccharomyces cerevisiae; in the test on Citrobacter koseri; in test [3]; in the test on Staphylococcus hominis; in the test on Streptococcus pyogenes) was “−” each time. Further, the “reduction by the species tested (Table VII)” value in test [4] is given as “reduced mainly by E. faecalis”.

For the origin of these results see patent publication US20150125889A1, “IN VITRO DETECTION OF MICROORGANISMS WITH AZOREDUCTASE ACTIVITY” (BIOMÉRIEUX, priority 2012, published 2015).
